According to patent publication US7419789B2, “Method of inhibiting binding of Dengue virus to a human cell with DC-SIGN blockers” (Institut Pasteur, priority 2002, dated 2008):

System: DEN-1 virus strain FGA/NA d1d
Test: Inhibition of DC-SIGN-mediated DEN-1 virus infection of THP/DC-SIGN cells, indirect immunofluorescence
Type: cell-based, DEN-1 virus (human monocytic THP/DC-SIGN cells)
Conditions: m.o.i. 5 AP61 FFU/cell
Method: Prior to infection, THP-1/DC/SIGN cells were incubated with either Mab 9D12 (dilution 1:50), Mab BD12.5 (20 μg/ml), Mab 1B10.2.6 (20 μg/ml), EDTA (5 mM), mannan (20 μg/ml), or mock-treated (control). Treated cells were infected with DEN-1 virus strain FGA/NA did (5 AP61 FFU/cell) in the presence of reagents for 2 hrs. Viral antigens were detected by indirect immunofluorescence as described in the legend of FIG. 1. The percentages of infected cells 48 h post-infection are indicated. Values represent the mean of triplicate assays ±SD.
Cells were washed once with RPMI 1640, incubated with highly purified virus in RPMI 1640 supplemented with 0.2% bovine serum albumine (BSA, pH 7.5) (Sigma) for 2 hrs at 37° C. and placed into fresh media supplemented with 2% FCS, 2 mM L-glutamine and antibiotics Peni/Strepto at 37° C. for 40 hrs.
The percentage of cells expressing viral antigen was determined using either DEN-1 virus-specific hyperimmune mouse ascites fluid (HMAF) 9801 (strain Hawaï), WN virus-specific HMAF 0801 (strain IS-98-ST1), or YF virus-specific HMAF. 9803 (strain FNV) with dilution of 1:50, by indirect immunofluorescence as previously described (Desprès et al., J. Virol., 70: 4090, 1996). […]

Molecule	infectivity of DEN-1 virus in preincubated THP/DC-SIGN cells (EDTA 5 mM, Mab 20 μg/ml)	reduction of FGA/NA d1d infectivity (20 μg/ml) [%]
O=C(O)CN(CCN(CC(=O)O)CC(=O)O)CC(=O)O [EDTA]	essentially abolished	–
mannan	–	75
